Paper PMC5011342, “A high throughput drug screening assay to identify compounds that promote oligodendrocyte differentiation using acutely dissociated and purified oligodendrocyte precursor cells” (BMC Research Notes, 2016)
Entries after “also recorded” stand apart in the source; their conditions may differ. Like-named read-outs stand apart in the source and are kept apart here.

Columns and labels:
[1] = test system: acutely dissociated and purified rat OPCs; assay: Acute OL differentiation assay (MBP expression/cell, immunofluorescent image quantification); assay type: cell-based; details: for hit in OL differentiation assay, MRF-TMC: ● = confirmed hit in this paper's assay; for EC50: average EC50 for induction of OL differentiation from independent biological replicates, eight concentrations
Experimental: In order to identify compounds with the potential to promote OL differentiation in vivo and thereby enhance remyelination, we first wanted to establish an in vitro assay system that would closely mimic conditions in vivo. To do this, we started by using OPCs acutely isolated from postnatal day 6–7 (P6–7) rat brains by O4 immunopanning. […] OPCs were plated directly onto a biological substrate (PDL/laminin) in 96-well view plates at moderate density to allow for sufficient room to expand processes during differentiation. We plated cells in serum-free medium lacking OPC mitogens (no PDGF or FGF) to allow a basal level of OL differentiation to commence, and as a positive control added thyroid hormone (T3, 40 ng/ml) to accelerate differentiation (Fig. 1, flow scheme).
Fig. 1 Flow scheme of the acute OL differentiation assay. a Purified oligodendrocyte precursor cells (OPCs) were cultured from P7 rat cortex and plated into PDL/laminin pre-coated 96-well plates. b One hour later test compounds were added. c OPC cultures with compound were maintained in culture for an additional 4 days. d On the 5th day with compound, cells were fixed and immunostained with anti-MBP antibodies and DAPI. e Images were acquired with automated fluorescence microscopy and scored phenotypically for OL differentiation (see “Methods” section)
To quantify the extent of OL differentiation occurring in treatment conditions, we measured the overall amount of MBP expression/cell (see “Methods” section). Figure 2a depicts the mask created over MBP staining under which the MBP expression was quantified. […]
All animal work was carried out in strict accordance with the recommendations in the Guide for the Care and Use of Laboratory Animals of the National Institutes of Health. The protocol was approved by the Institutional Use and Care and Use Committee at the Molecular Medicine Research Institute (Sunnyvale, CA). Animals used for OPC isolation in these studies were euthanized by decapitation. OPCs from brains of P6-P7 Sprague–Dawley rat pups (Charles River, Wilmington, MA, USA) were enriched by immunopanning as previously described (Dugas et al. 2006). Briefly, single cell suspensions were obtained from papain-digested neonatal brains and depleted of mature glial cells by successive panning with RAN-2- and GalC-coated plates, followed by enrichment for OPCs using O4-coated plates. OPCs were plated in differentiation media (DMEM, 100 U/ml Penicillin/100 µg/ml streptomycin, 2 mM L-glutamine, 1 mM Na pyruvate, 5 µg/ml insulin, 5 µg/ml N-acetyl-L-cysteine, 1× trace elements B,10 ng/ml d-Biotin, 100 µg/ml BSA, 100 µg/ml apo-transferrin, 16 µg/ml putrescine, 60 ng/ml progesterone, 40 ng/ml sodium selenite 5 ng/ml forskolin, 10 ng/ml CNTF, 1 ng/ml NT-3).
Acutely enriched OPCs were plated in differentiation media at 5000 cells/well into PDL/laminin coated 96-well view plates and centrifuged at 200×g to facilitate cell attachment, survival, and even distribution of OPCs. OPCs were pre-incubated for 1–2 h at 37 °C in 10 % CO2, followed by the addition of test compounds in quadruplicate. Controls were added in eight replicate wells, negative control = 0.1 % DMSO; positive control = 40 ng/ml T3. The day of OPC plating was considered DIV0. On DIV4, cells were fixed, immunostained for myelin basic protein (MBP) expression, imaged and quantified as described below.

expanded OPCs = assay: cells; details: alamarBlue viability of expanded OPCs, relative to DMSO control
Experimental: Having established a consistent assay for measuring OL differentiation in vitro, the next step was to utilize this assay to assess the ability of a wide array of compounds to promote OL differentiation. Prior to library screening, we first established the maximum non-toxic dose of each compound in the library. […] Therefore, we added each compound in the NIH clinical collection (NCC) library to OPCs at 10, 1, and 0.1 µM concentrations. Three days later, we assessed viability of the treated cells by measuring AlamarBlue fluorescence, a measure of cell viability (see “Methods” section). […] Appropriately, we established three sets of screening concentrations for library compounds: non-toxic compounds were tested at 10 and 2 µM, slightly toxic compounds (only toxic at 10 µM) were tested at 2 and 0.4 µM, and very toxic compounds were tested at 0.4 and 0.08 µM.
OPCs were expanded in vitro by seeding into PDL-coated tissue culture flasks at 1000–2000 cells/cm^2 in differentiation media supplemented with 10 ng/ml PDGF-AA. Proliferating OPCs were fed every 2–3 days and supplemented with 2–3× concentration of PDGF as needed to prevent OPC differentiation. After 6–7 days of proliferation, OPCs were harvested by trypsinization, plated into PDL-coated 96-well Falcon plates and centrifuged at 200×g to facilitate cell attachment, survival, and even distribution of cells. Expanded OPCs were seeded in differentiation media at 10,000 cells/well and incubated for 2 h at 37 °C, 10 % CO2 prior to addition of compounds. The NCC library was diluted and added to cells at 10, 1, and 0.1 µM; each concentration was tested in quadruplicate. As a positive control for the induction of toxicity, 5 ng/ml tunicamycin was added to 8 wells in each plate. Three days later, a 1:10 dilution of alamarBlue® (AB) was added to each well and cells were incubated 4 h at 37 °C, 10 % CO2. AB fluorescence was measured using a PerkinElmer Victor II fluorescence microplate reader (PerkinElmer, Waltham, MA) with 560 nm excitation/590 nm emission filters. For library screening, the highest concentration of each compound was adjusted to a minimally toxic concentration based on this toxicity data. Compounds were additionally tested at a second concentration that was 1/5th of the top concentration. The final concentration of DMSO in each well was 0.1 %.

[2] = Rattus norvegicus, 2 uM test compound, relative to quetiapine, sheet "All OLga data", read-out: OL differentiation, 2 uM (% Quet)
[3] = Rattus norvegicus, 10 uM test compound, relative to quetiapine, sheet "All OLga data", read-out: OL differentiation, 10 uM (% Quet)

## O=c1[nH]cc(F)c(=O)[nH]1 [5-Fluorouracil]
[1]; Rattus norvegicus, test compound at 0.08 uM, NCC library screen, sheet "All OLga data", relative to quetiapine, read-out: 0.08 uM (% Quet)
  activation at 0.08 µM: -10.8%
[1]; Rattus norvegicus, test compound at 0.4 uM, NCC library screen, sheet "All OLga data", relative to quetiapine, read-out: 0.4 uM (% Quet)
  activation at 0.4 µM: -21.3%
Expanded OPCs; compound at 0.1 µM
  0.1 µM (% DMSO): 80.9 % DMSO
Expanded OPCs; compound at 1 µM
  1 µM (% DMSO): 26.6 % DMSO
Expanded OPCs; compound at 10 µM
  10 µM (% DMSO): 12.2 % DMSO

## COc1cc2c(cc1OC)C(=O)C(CC1CCN(Cc3ccccc3)CC1)C2 (stereo not drawn) [Donepezil, reference compound]
[1]; [2]
  activation at 2 µM: 94.8%
[1]; [3]
  activation at 10 µM: 75.6%
[1]
  hit in OL differentiation assay, MRF-TMC: ●

## CN(C)CCC[C@@]1(c2ccc(F)cc2)OCc2cc(C#N)ccc21 [Escitalopram, reference compound]
[1]; Rattus norvegicus
  EC50: 1.3 µM
[1]
  hit in OL differentiation assay, MRF-TMC: ●

## COc1ccc(CC(C)NCC(O)c2ccc(O)c(NC=O)c2)cc1 (stereo not drawn) [Formoterol]
[1]; Rattus norvegicus, read-out: 2 uM (% Quet)
  activation at 2 µM: 4.6%
[1]; Rattus norvegicus, read-out: 10 uM (% Quet)
  activation at 10 µM: 12.1%

## CC1CCN(CCCC(=O)c2ccc(F)cc2)CC1 [Metylperon, reference compound]
[1]; Rattus norvegicus
  EC50: 7.3 µM
[1]
  hit in OL differentiation assay, MRF-TMC: ●

## COc1c(N2C[C@@H]3CCCN[C@@H]3C2)c(F)cc2c(=O)c(C(=O)O)cn(C3CC3)c12 [Moxifloxacin]
[1]; [2]
  activation at 2 µM: 20.2%
[1]; [3]
  activation at 10 µM: 16.3%

## COC(=O)C1=C(C)NC(C)=C(C(=O)OC)C1c1ccccc1[N+](=O)[O-] [Nifedipine]
[1]; Rattus norvegicus, 0.4 uM test compound, relative to quetiapine, sheet "All OLga data", read-out: OL differentiation, 0.4 uM (% Quet)
  activation at 0.4 µM: 19.7%
[1]; [2]
  activation at 2 µM: -8.9%

## Nc1nc2ccc(OC(F)(F)F)cc2s1 [Riluzole]
[1]; [2]
  activation at 2 µM: -11.1%
[1]; [3]
  activation at 10 µM: 32.6%

## N[C@@H](Cc1cc(I)c(Oc2ccc(O)c(I)c2)c(I)c1)C(=O)O [T3, triiodothyronine, reference compound]
[1]; MBP expression versus 0.1 % DMSO negative control
  promotion of OL differentiation (in words): able to promote OL differentiation at one or both concentrations tested; also recorded: consistently and significantly promote OL differentiation
